Assay results reported in US20240294499A1, “TARGETED PROTEIN DEGRADATION USING BIFUNCTIONAL COMPOUNDS THAT BIND UBIQUITIN LIGASE AND TARGET MCL-1 PROTEIN” (Captor Therapeutics S.A., priority 2021, published 2024).

Legend:
[1] = molecular target: T1, [MCL-1]-[compound of formula (I)]-[CRBN/DDB1] complex (Homo sapiens, UniProt Q07820+Q96SW2); experiment: AlphaLISA dose response ternary complex formation assay; type: binding; conditions: for EC50: read-out: AlphaLISA dose response Average pEC50 by molecule (converted)
T1 sequence (Q07820 whole entry): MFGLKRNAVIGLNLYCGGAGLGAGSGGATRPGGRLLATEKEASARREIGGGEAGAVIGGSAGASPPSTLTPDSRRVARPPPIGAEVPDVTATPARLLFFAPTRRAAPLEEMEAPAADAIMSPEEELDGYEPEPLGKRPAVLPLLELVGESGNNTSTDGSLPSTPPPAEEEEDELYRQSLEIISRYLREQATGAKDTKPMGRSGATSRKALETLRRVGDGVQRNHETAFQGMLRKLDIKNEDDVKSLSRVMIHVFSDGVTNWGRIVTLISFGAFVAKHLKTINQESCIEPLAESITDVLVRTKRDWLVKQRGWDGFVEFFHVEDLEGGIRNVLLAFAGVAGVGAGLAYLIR
T1 sequence (Q96SW2 whole entry): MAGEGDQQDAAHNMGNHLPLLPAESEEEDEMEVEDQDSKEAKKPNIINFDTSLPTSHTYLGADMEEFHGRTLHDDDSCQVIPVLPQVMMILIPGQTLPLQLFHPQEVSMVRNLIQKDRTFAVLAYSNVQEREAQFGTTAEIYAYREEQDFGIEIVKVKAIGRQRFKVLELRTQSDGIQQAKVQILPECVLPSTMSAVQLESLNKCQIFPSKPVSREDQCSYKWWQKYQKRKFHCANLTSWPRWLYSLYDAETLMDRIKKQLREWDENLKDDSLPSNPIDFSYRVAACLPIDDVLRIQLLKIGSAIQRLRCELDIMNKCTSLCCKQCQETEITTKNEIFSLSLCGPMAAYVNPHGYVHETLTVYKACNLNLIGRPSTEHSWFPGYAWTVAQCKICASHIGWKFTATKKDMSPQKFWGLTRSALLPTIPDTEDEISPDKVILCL
T1 sequence (Q16531 whole entry partner): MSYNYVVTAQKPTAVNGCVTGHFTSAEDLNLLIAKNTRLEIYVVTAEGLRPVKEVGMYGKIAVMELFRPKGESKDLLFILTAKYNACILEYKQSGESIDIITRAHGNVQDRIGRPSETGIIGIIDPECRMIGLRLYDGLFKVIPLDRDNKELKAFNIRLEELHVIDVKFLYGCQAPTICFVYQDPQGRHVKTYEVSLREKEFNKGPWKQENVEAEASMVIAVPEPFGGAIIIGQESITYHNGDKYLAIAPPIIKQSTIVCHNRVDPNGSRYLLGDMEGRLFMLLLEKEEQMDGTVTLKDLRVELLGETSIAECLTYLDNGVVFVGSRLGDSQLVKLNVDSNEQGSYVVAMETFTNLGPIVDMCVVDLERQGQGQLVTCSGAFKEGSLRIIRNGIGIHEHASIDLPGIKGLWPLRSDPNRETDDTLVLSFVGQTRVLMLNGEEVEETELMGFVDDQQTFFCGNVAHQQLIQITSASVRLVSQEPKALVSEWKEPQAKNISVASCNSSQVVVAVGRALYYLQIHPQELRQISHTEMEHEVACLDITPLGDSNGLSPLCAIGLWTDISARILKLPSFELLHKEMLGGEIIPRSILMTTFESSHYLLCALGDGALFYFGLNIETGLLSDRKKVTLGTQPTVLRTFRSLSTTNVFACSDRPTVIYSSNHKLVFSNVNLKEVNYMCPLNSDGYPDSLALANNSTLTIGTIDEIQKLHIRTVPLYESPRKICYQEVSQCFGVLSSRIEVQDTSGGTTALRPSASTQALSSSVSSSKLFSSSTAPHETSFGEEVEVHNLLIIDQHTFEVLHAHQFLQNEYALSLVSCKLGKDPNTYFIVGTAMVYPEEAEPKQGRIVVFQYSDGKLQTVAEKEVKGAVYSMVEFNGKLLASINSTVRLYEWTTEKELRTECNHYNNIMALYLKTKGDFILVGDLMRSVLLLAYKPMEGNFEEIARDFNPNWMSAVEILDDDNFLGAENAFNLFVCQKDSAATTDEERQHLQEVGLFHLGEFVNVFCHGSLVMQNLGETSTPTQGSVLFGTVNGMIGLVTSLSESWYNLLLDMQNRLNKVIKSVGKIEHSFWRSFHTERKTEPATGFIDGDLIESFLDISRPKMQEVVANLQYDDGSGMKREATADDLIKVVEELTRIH
Procedure, shortened: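 EC50 comes from dose–response of AlphaLISA luminescence (excitation 680, emission 615 nm), normalised between DMSO background and an internal positive control, with concentrations past the hook point dropped. Ternary complex formed by mixing bead-bound biotin-hMCL-1 and His-CRBN/DDB1 (protein solutions 40 and 200 nM) with compound in 2% DMSO, 30 min, 25 °C.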

[2] = tested on: MV-4-11 cells; experiment: Cell viability assay (CellTiter-Glo), MV-4-11; type: cell-based; conditions: 1% FBS; for IC50: Homo sapiens, MV4-11, 24 hours incubation, read-out: Average pIC50 by molecule MV-4-11 (converted)
Procedure, shortened: (§1)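 Luminescent ATP readout (CellTiter-Glo) at 24 hours measured viability, expressed relative to DMSO-treated wells. Compound was added directly to the medium as a 9–12-point threefold series starting at 30 uM, at 0.5% final DMSO. The medium contained FBS reduced to 1%.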

[3] = tested on: DMS 114 cells; experiment: Cell viability assay (CellTiter-Glo), DMS 114; type: cell-based; conditions: 72 hours incubation, 10% FBS; for IC50: Homo sapiens, DMS-114, 72 h, read-out: Average pIC50 by molecule DMS 114 (converted)
From the text: The effect of various compounds of the invention on the viability of DMS 114 cell line was investigated, using the CTG protocol described below.
DMS 114 cell line is derived from small-cell lung cancer, which is described in the literature as MCL-1 dependent lines [Yasuda Y et al. Cell Death & Disease 2020; 11: 177].
DMS 114 cells were detached with trypsin and then resuspended in growth medium containing 10% FBS and counted. Cell suspension was then adjusted to 5×10^4 cells/ml using growth medium containing 10% FBS. Afterwards, […] were seeded on 384-well plates (50 μl). Plates were then placed in the incubator overnight until treated. Next day, compounds were added using ECHO 555 liquid handler. Compound concentrations used in this assay: 1/3 dilutions starting at 30 uM (9 to 12 points).
After 72 hours of incubation, cell viability was evaluated using CellTiter-Glo Luminescent Cell Viability Assay (Promega, cat #G7572). Luminescence signal was measured using a CLARIOstar Plus Multi-Mode Microplate Reader (574-590 nm).

[4] = tested on: ARH-77 cells; experiment: Cell viability assay (CellTiter-Glo), ARH-77; type: cell-based; conditions: 1% FBS; for IC50: Homo sapiens, ARH-77, 24 hours incubation, read-out: Average pIC50 by molecule ARH-77 (converted)
Procedure, shortened: as §1

[5] = molecular target: MCL-1 protein (Homo sapiens, UniProt Q07820); experiment: OPM-2 cells: MCL-1 protein degradation, Simple Western; type: cell-based; set-up: endogenous in cells; host or cells: OPM-2; conditions: OPM-2 cell line, 6 h treatment, 100 nM compound, vs DMSO
Sequence of MCL-1 protein (Q07820 whole entry): as the sequence (Q07820 whole entry) above
From the text: The effect of various compounds of the invention and the reference compounds on MCL-1protein degradation in the OPM-2 cell line was investigated, using the degradation assay protocol below.
OPM-2 cells were maintained in RPMI-1640 medium, supplemented with penicillin/streptomycin and 10% Fetal Bovine Serum (FBS). During the treatment, FBS concentration was reduced to 1%.
Compound stocks were pre-diluted in DMSO and added directly to the cells growth medium (final DMSO concentration: 0.5%).
OPM-2 cells were collected, centrifuged (250 rcf, 5 min), resuspended in a growth medium containing 1% FBS and counted. The cell suspension was then adjusted to 1×10^6 cell/ml using a growth medium containing 1% FBS. Afterwards, 0.5×10^6 cells were seeded on 24-well plates in 0.5 mL of medium per well. Immediately after seeding cells, compounds in appropriate concentrations were added to the cell culture medium.
Following the treatment with the compounds, cells were collected from the plates and suspended in a lysis buffer (2% SDS, 50 mM Tris, pH 8.0, 100 U/ml Pierce Universal Nuclease for Cell Lysis, cOmplete EDTA-free Protease Inhibitor Cocktail) and incubated on ice for 45 min.
The following steps, including sample loading, protein separation, immunoprobing or labelling, washes and detection analysis was performed using Jess from ProteinSimple, an automatic system for analyzing protein levels in cell lysates (12-230 kDa Jess or Wes separation module 8×25 capillaries, protein normalization assay, no. SM-PN01-1). The Protein of Interest was detected using MCL-1 (D35A5) Rabbit monoclonal antibody (Cell Signaling, #5453, LOT: 4). Antibody was diluted in a ratio of 1:100 in Antibody diluent.
[%] of protein reduction is calculated in comparison to the cells treated with DMSO, which stand for 0%.
The results for the 6 h treatment with 100 nM compounds are shown in Table 9, using the following labels: • <20% for 0-19% of MCL-1 protein reduction, • ≥20% for 20-39% of MCL-1 protein reduction, • ≥40% for 40-100% of MCL-1 protein reduction.

[6] = molecular target: T1, [MCL-1]-[compound of formula (I)]-[CRBN/DDB1] complex; experiment: HTRF ternary complex assay; type: binding; conditions: ternary complex formation; read-out: HTRF ternary complex Average pEC50 by molecule (converted)
Procedure, shortened: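 hMcl-1 and CRBN (mix at 48 nM and 105.6 nM) with Streptavidin-Eu cryptate and anti-6×His-d2 in PPI Europium buffer with 2 mM DTT; compounds in dose-response, 0.5% DMSO. Incubated 180 min at 25° C, TR-FRET 665/620 read. Bell-shaped curve fitted by Gaussian; EC50 reported.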

SMILES | AlphaLISA dose response Average pEC50 by molecule [1] | Average pIC50 by molecule MV-4-11 ([2]; 24 hours incubation) | EC50 [1] [nM] | IC50 [2] [nM] | Simple Western, % of protein reduction [5] [%] | EC50 [6] [nM] | Average pIC50 by molecule DMS 114 [3] | Average pIC50 by molecule ARH-77 ([4]; 24 hours incubation) | IC50 [3] [nM] | IC50 [4] [nM]
Cc1nn(C)c(C)c1-c1c(Cl)ccc2c(CCCOc3cccc4cc(F)ccc34)c(C(=O)O)n(CCN3CCN(C(=O)COc4cccc5c4CN(C4CCC(=O)NC4=O)C5=O)CC3)c12 (atropisomer, axis not shown; (Ra)) [Compound 294, (Ra)-6-Chloro-1-(2-(4-(2-((2-(2,6-dioxopiperidin-3-yl)-1-oxoisoindolin-4-yl)oxy)acetyl)piperazin-1-yl)ethyl)-3-(3-((6-fluoronaphthalen-1-yl)oxy)propyl)-7-(1,3,5-trimethyl-1H-pyrazol-4-yl)-1H-indole-2-carboxylic acid] | >7 | ≥7.5 | – | – | – | – | ≥6.0 | <5.0 | – | –
Cc1nn(C)c(C)c1-c1c(Cl)ccc2c(CCCOc3cccc4cc(F)ccc34)c(C(=O)O)n(CCN3CCN(C(=O)[C@H](C)Oc4cccc5c4C(=O)N([C@H]4CCC(=O)NC4=O)C5=O)CC3)c12 (single isomer, unassigned) [Compound 319] | – | – | < 100 | ≤ 31.6 | – | – | – | – | ≤ 3160 | > 10000
Cc1nn(C)c(C)c1-c1c(F)ccc2c(CCCOc3cccc4ccccc34)c(C(=O)O)n(CCN3CCN(C(=O)COc4cccc5c4C(=O)N(C4CCC(=O)NC4=O)C5=O)CC3)c12 (stereo not drawn) [Compound 213, 1-{2-[4-(2-{[2-(2,6-dioxopiperidin-3-yl)-1,3-dioxo-2,3-dihydro-1H-isoindol-4-yl]oxy}acetyl)piperazin-1-yl]ethyl}-6-fluoro-3-[3-(naphthalen-1-yloxy)propyl]-7-(1,3,5-trimethyl-1H-pyrazol-4-yl)-1H-indole-2-carboxylic acid] | – | – | < 100 | ≤ 316 | ≥40 | – | – | – | – | > 10000
Cc1nn(C)c(COc2ccc(N3CCN(S(=O)(=O)N(C)C)CC3)cc2)c1-c1cccc2c(CCCOc3cccc4ccccc34)c(C(=O)O)n(CCN3CCN(C(=O)COc4cccc5c4CN(C4CCC(=O)NC4=O)C5=O)CC3)c12 (stereo not drawn) [Compound 249, 7-(5-((4-(4-(N,N-dimethylsulfamoyl)piperazin-1-yl)phenoxy)methyl)-1,3-dimethyl-1H-pyrazol-4-yl)-1-(2-(4-(2-((2-(2,6-dioxopiperidin-3-yl)-1-oxoisoindolin-4-yl)oxy)acetyl)piperazin-1-yl)ethyl)-3-(3-(naphthalen-1-yloxy)propyl)-1H-indole-2-carboxylic acid] | – | – | < 100 | ≤ 1000 | ≥20 | – | – | – | – | –
Cc1nn(C)c(C)c1-c1c(Cl)ccc2c(CCCOc3cccc4cc(F)ccc34)c(C(=O)O)n(CC[N+]3([O-])CCN(C(=O)COc4cccc5c4CN(C4CCC(=O)NC4=O)C5=O)CC3)c12 (stereo not drawn) [Compound 298, 1-(2-(2-Carboxy-6-chloro-3-(3-((6-fluoronaphthalen-1-yl)oxy)propyl)-7-(1,3,5-trimethyl-1H-pyrazol-4-yl)-1H-indol-1-yl)ethyl)-4-(2-((2-(2,6-dioxopiperidin-3-yl)-1-oxoisoindolin-4-yl)oxy)acetyl)piperazine 1-oxide] | – | – | < 10 | ≤ 100 | – | – | – | – | ≤ 1000 | > 10000
Cc1nn(C)c(C)c1-c1c(Cl)ccc2c(CCCOc3cccc4cc(F)ccc34)c(C(=O)O)n(CCN3CCN(C4CCN(c5cc6c(cc5F)C(=O)N(C5CCC(=O)NC5=O)C6=O)CC4)CC3)c12 (stereo not drawn) [Compound 338, 6-Chloro-1-[2-(4-{1-[2-(2,6-dioxopiperidin-3-yl)-6-fluoro-1,3-dioxo-2,3-dihydro-1H-isoindol-5-yl]piperidin-4-yl}piperazin-1-yl)ethyl]-3-{3-[(6-fluoronaphthalen-1-yl)oxy]propyl}-7-(1,3,5-trimethyl-1H-pyrazol-4-yl)-1H-indole-2-carboxylic acid] | – | – | – | ≤ 31.6 | – | < 10 | – | – | ≤ 10000 | > 10000

The next lines start with results.

AlphaLISA dose response Average pEC50 by molecule [1] | Average pIC50 by molecule MV-4-11 ([2]; 24 hours incubation) | EC50 [1] [nM] | IC50 [2] [nM] | Simple Western, % of protein reduction [5] [%] | EC50 [6] [nM] | SMILES | Average pIC50 by molecule DMS 114 [3] | Average pIC50 by molecule ARH-77 ([4]; 24 hours incubation) | IC50 [3] [nM] | IC50 [4] [nM]
– | – | < 100 | ≤ 100 | – | – | Cc1nn(C)c(C)c1-c1c(Cl)ccc2c(CCCOc3cccc4cc(F)ccc34)c(C(=O)O)n(CCN3CCN(C(=O)Cn4c(C)nc5c(C(=O)NC6CCC(=O)NC6=O)cc(N)cc54)CC3)c12 (stereo not drawn) [Compound 275, 1-{2-[4-(2-{6-Amino-4-[(2,6-dioxopiperidin-3-yl)carbamoyl]-2-methyl-1H-1,3-benzodiazol-1-yl}acetyl)piperazin-1-yl]ethyl}-6-chloro-3-{3-[(6-fluoronaphthalen-1-yl)oxy]propyl}-7-(1,3,5-trimethyl-1H-pyrazol-4-yl)-1H-indole-2-carboxylic acid] | – | – | ≤ 3160 | > 10000
– | – | < 100 | ≤ 100 | – | – | COc1cc(C(=O)NC2CCC(=O)NC2=O)c2nc(C)n(CC(=O)N3CCN(CCn4c(C(=O)O)c(CCCOc5cccc6cc(F)ccc56)c5ccc(Cl)c(-c6c(C)nn(C)c6C)c54)CC3)c2c1 (stereo not drawn) [Compound 277, 6-Chloro-1-{2-[4-(2-{4-[(2,6-dioxopiperidin-3-yl)carbamoyl]-6-methoxy-2-methyl-1H-1,3-benzodiazol-1-yl}acetyl)piperazin-1-yl]ethyl}-3-{3-[(6-fluoronaphthalen-1-yl)oxy]propyl}-7-(1,3,5-trimethyl-1H-pyrazol-4-yl)-1H-indole-2-carboxylic acid] | – | – | ≤ 3160 | > 10000
– | – | < 100 | ≤ 100 | – | – | Cc1nn(C)c(C)c1-c1c(Cl)ccc2c(CCCOc3cccc4cc(F)ccc34)c(C(=O)O)n(CCN3CCN(C(=O)Cn4c(C)nc5c(C(=O)NC6CCC(=O)NC6=O)cc(F)cc54)CC3)c12 (stereo not drawn) [Compound 278, 6-Chloro-1-{2-[4-(2-{4-[(2,6-dioxopiperidin-3-yl)carbamoyl]-6-fluoro-2-methyl-1H-1,3-benzodiazol-1-yl}acetyl)piperazin-1-yl]ethyl}-3-{3-[(6-fluoronaphthalen-1-yl)oxy]propyl}-7-(1,3,5-trimethyl-1H-pyrazol-4-yl)-1H-indole-2-carboxylic acid] | – | – | ≤ 3160 | > 10000
– | – | < 100 | ≤ 31.6 | – | – | Cc1nn(C)c(C)c1-c1c(Cl)ccc2c(CCCOc3cccc4cc(F)ccc34)c(C(=O)O)n(CCN3CCN(C(=O)COc4c(F)ccc5c4CN(C4CCC(=O)NC4=O)C5=O)CC3)c12 (stereo not drawn) [Compound 342, 6-Chloro-1-(2-(4-(2-((2-(2,6-dioxopiperidin-3-yl)-5-fluoro-1-oxoisoindolin-4-yl)oxy)acetyl)piperazin-1-yl)ethyl)-3-(3-((6-fluoronaphthalen-1-yl)oxy)propyl)-7-(1,3,5-trimethyl-1H-pyrazol-4-yl)-1H-indole-2-carboxylic acid] | – | – | ≤ 1000 | > 10000
